In the CheMixHub viscosity set:
± gives the uncertainty stated by the source.

Test: xn = mol fraction of the nth substance listed

CNC=O + CCCO
viscosity [mPa·s], 101 kPa
Details	x2 = 0.1009	x2 = 0.2001	x2 = 0.3003	x2 = 0.4003	x2 = 0.5005	x2 = 0.6	x2 = 0.7001	x2 = 0.8009	x2 = 0.9007
303.15 K	1.545 ± 0.015	1.51 ± 0.014	1.475 ± 0.014	1.454 ± 0.013	1.441 ± 0.013	1.444 ± 0.013	1.464 ± 0.013	1.52 ± 0.014	1.605 ± 0.015
308.15 K	1.423 ± 0.014	1.389 ± 0.013	1.357 ± 0.013	1.336 ± 0.012	1.322 ± 0.012	1.321 ± 0.012	1.337 ± 0.012	1.381 ± 0.013	1.448 ± 0.013
313.15 K	1.316 ± 0.013	1.284 ± 0.012	1.252 ± 0.012	1.231 ± 0.011	1.216 ± 0.011	1.213 ± 0.011	1.225 ± 0.011	1.258 ± 0.011	1.31 ± 0.012
318.15 K	1.22 ± 0.012	1.189 ± 0.011	1.158 ± 0.011	1.138 ± 0.011	1.123 ± 0.01	1.118 ± 0.01	1.124 ± 0.01	1.149 ± 0.01	1.188 ± 0.011
323.15 K	1.134 ± 0.011	1.105 ± 0.011	1.075 ± 0.01	1.054 ± 0.0099	1.036 ± 0.0097	1.03 ± 0.0095	1.034 ± 0.0095	1.051 ± 0.0097	1.079 ± 0.01

COC(=O)c1ccccc1 + CCCO
viscosity [mPa·s], 100 kPa
Details	x1 = 0.05	x1 = 0.1	x1 = 0.2	x1 = 0.3	x1 = 0.4	x1 = 0.5	x1 = 0.6	x1 = 0.65	x1 = 0.8	x1 = 0.9
293.2 K	2.016 ± 0.043	1.887 ± 0.04	1.724 ± 0.037	1.65 ± 0.035	1.622 ± 0.035	1.621 ± 0.035	1.649 ± 0.035	1.669 ± 0.036	1.76 ± 0.038	1.872 ± 0.04
298.2 K	1.794 ± 0.038	1.685 ± 0.036	1.547 ± 0.033	1.487 ± 0.032	1.464 ± 0.031	1.466 ± 0.031	1.492 ± 0.032	1.511 ± 0.032	1.594 ± 0.034	1.693 ± 0.036
303.2 K	1.601 ± 0.034	1.509 ± 0.032	1.395 ± 0.03	1.344 ± 0.029	1.327 ± 0.028	1.332 ± 0.028	1.357 ± 0.029	1.375 ± 0.029	1.453 ± 0.031	1.54 ± 0.033
308.2 K	1.434 ± 0.031	1.356 ± 0.029	1.262 ± 0.027	1.22 ± 0.026	1.209 ± 0.026	1.215 ± 0.026	1.239 ± 0.026	1.257 ± 0.027	1.33 ± 0.028	1.41 ± 0.03
313.2 K	1.288 ± 0.028	1.223 ± 0.026	1.145 ± 0.024	1.112 ± 0.024	1.104 ± 0.024	1.113 ± 0.024	1.138 ± 0.024	1.154 ± 0.025	1.223 ± 0.026	1.297 ± 0.028

C/C=C/C(=O)OCC + CCO
viscosity [mPa·s], 101 kPa
Details	x1 = 0.0991	x1 = 0.1985	x1 = 0.2994	x1 = 0.3961	x1 = 0.5006	x1 = 0.6	x1 = 0.6968	x1 = 0.7816	x1 = 0.8996
293.15 K	1.026 ± 0.0082	0.929 ± 0.0077	0.9257 ± 0.0078	0.9219 ± 0.008	0.878 ± 0.0079	0.8293 ± 0.0078	0.8016 ± 0.0079	0.8351 ± 0.0084	0.8122 ± 0.0087
298.15 K	0.9334 ± 0.0076	0.8523 ± 0.0071	0.8465 ± 0.0072	0.8404 ± 0.0074	0.8061 ± 0.0074	0.7663 ± 0.0073	0.7402 ± 0.0073	0.7648 ± 0.0078	0.7535 ± 0.0081
303.15 K	0.8498 ± 0.007	0.7812 ± 0.0066	0.7751 ± 0.0067	0.7739 ± 0.0069	0.7411 ± 0.0068	0.7061 ± 0.0068	0.6855 ± 0.0069	0.7052 ± 0.0073	0.7 ± 0.0076
313.15 K	0.7166 ± 0.0061	0.6615 ± 0.0058	0.6607 ± 0.0059	0.6588 ± 0.006	0.6372 ± 0.006	0.6091 ± 0.006	0.5958 ± 0.0061	0.6134 ± 0.0064	0.6108 ± 0.0067
323.15 K	0.6156 ± 0.0053	0.5747 ± 0.0051	0.5702 ± 0.0052	0.5686 ± 0.0053	0.5537 ± 0.0053	0.5363 ± 0.0054	0.5284 ± 0.0055	0.5414 ± 0.0058	0.5401 ± 0.006
